For eight compounds, IC50 and inhibition type results are on record in publication PMC8356711 (Research in Pharmaceutical Sciences, 2021).

SMILES strings stand for the structures. “Also recorded” adds a separate entry of the source.

T1 sequence (C7FF04 1-392): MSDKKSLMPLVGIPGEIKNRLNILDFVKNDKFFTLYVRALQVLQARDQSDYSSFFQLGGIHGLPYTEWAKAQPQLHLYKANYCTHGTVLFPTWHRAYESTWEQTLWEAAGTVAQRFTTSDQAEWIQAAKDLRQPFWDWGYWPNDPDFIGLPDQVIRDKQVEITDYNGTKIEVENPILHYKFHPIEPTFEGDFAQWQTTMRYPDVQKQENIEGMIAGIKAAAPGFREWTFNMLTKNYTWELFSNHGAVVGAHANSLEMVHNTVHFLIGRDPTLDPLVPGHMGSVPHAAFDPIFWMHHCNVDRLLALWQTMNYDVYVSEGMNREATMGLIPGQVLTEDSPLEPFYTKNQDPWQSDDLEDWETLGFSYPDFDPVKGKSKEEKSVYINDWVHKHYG

The first assay addresses T1, mushroom tyrosinase (Agaricus bisporus, UniProt C7FF04). Nature of the assay: biochemical.
Details: not given
On to `COc1ccc(/C=C2\CCc3cc(O)ccc3C2=O)cc1` [C1, (E)-6-hydroxy-2-(4-methoxybenzylidene)-3,4-dihydronaphthalen-1(2H)-one], for which half-maximal inhibition (IC50) was put at 17.6 ± 1.1 µM.

As to `COc1cc(/C=C2\CCc3cc(O)ccc3C2=O)cc(OC)c1OC` [C2, (E) - 6-hydroxy - 2-(3,4,5-trimethoxy-benzylidene)-3,4-dihydronaphthalen-1(2H)-one], half-maximal inhibition (IC50) was put at 8.8 ± 1.8 µM.

For `COc1ccccc1/C=C1\CCc2cc(O)ccc2C1=O` [C3, (E)-6-hydroxy-2-(2-methoxybenzylidene)-3,4-dihydronaphthalen-1(2H)-one], half-maximal inhibition (IC50) was put at 11.1 ± 2.5 µM.

With `CCOc1cc(/C=C2\CCc3cc(O)ccc3C2=O)ccc1O` [C4, (E)-2-(3-ethoxy-4-hydroxybenzylidene)-6-hydroxy-3,4-dihydronaphthalen-1(2H)-one], it took 21.4 ± 3.1 µM to reach half-maximal inhibition (IC50).

Consider `O=C1/C(=C/c2ccc(O)cc2)CCc2cc(O)ccc21` [C5, (E)-6-hydroxy-2-(4-hydroxybenzylidene)-3,4-dihydronaphthalen-1(2H)-one], for which the IC50 (commonly the concentration at which inhibition is half-maximal) was found to be 48.6 ± 2.9 µM.

With `COc1ccc(/C=C2\CCc3cc(O)ccc3C2=O)cc1OC` [C6, (E)-2-(3,4-dimethoxybenzylidene)-6-hydroxy-3,4-dihydronaphthalen-1(2H)-one], the half-inhibitory concentration (IC50) was determined as 17.6 ± 2.4 µM.

`O=C1/C(=C/c2ccc(Cl)cc2)CCc2cc(O)ccc21` [C7, (E)-2-(4-chlorobenzylidene)-6-hydroxy-3,4-dihydronaphthalen-1(2H)-one] gave an IC50 of 22.4 ± 3.1 µM.

As to `COc1cc(/C=C2\CCc3cc(O)ccc3C2=O)cc(OC)c1O` [C9, (E)-6-hydroxy-2-(4-hydroxy-3,5-dimethoxy-benzylidene)-3,4-dihydronaphthalen-1(2H)-one], the half-inhibitory concentration (IC50) was more than 50 µM.

The next assay deals with T1, mushroom tyrosinase.
Experiment: not given
As to conditions: Lineweaver-Burk plot, L-DOPA substrate.
With `COc1cc(/C=C2\CCc3cc(O)ccc3C2=O)cc(OC)c1OC` [C2, (E) - 6-hydroxy - 2-(3,4,5-trimethoxy-benzylidene)-3,4-dihydronaphthalen-1(2H)-one], the inhibition type result is “competitively; also recorded: competitive tyrosinase inhibitor”.
